In patent US4122184A, “Benzimidazole insecticides” (priority 1977, dated 1978):
Where “and” joins values, the source holds several entries; their conditions need not be identical. Equal values may be shown once.

How the values were obtained:
[1] = tested on: Melon Aphid; assay: Melon Aphid Test; type: in vivo, Aphis gossypii (Hemiptera); details: 24 h
From the text: Four blue hubbard squash seeds are planted per container in vermiculite and the containers watered from the bottom. After 6 days, the two weakest plants are cut off and one cotyledon and the primary leaves are removed from each of the two remaining plants. The remaining cotyledon is infested with 100 melon aphids from a stock colony by pinning the cotyledon against an aphid-infested squash cotyledon from the colony and allowing the aphids to transfer. After transfer, the colony leaf is removed. Forty-eight hours later, the infested leaves are sprayed to wetting with formulations containing graded amounts of the insecticide using a DeVilbiss atomizer at 10 psi held at 12-15 inches from the plant. Controls consist of two infested, unsprayed squash plants and two infested plants sprayed to wetting with a formulation containing 100 ppm malathion as a reference standard. The mortality is estimated 24 hours after spraying by observation using a 10 power dissecting microscope. The same rating scale is used as before.

[2] = tested on: Boll Weevil; assay: Boll Weevil Test; type: in vivo, Anthonomus grandis (Coleoptera); details: 48 h
From the text: The procedure is identical to that employed for the Mexican bean beetle and the Southern armyworm, except that 10 adult boll weevils are placed on cotton leaves that have been dipped into formulations of the test compounds. The same rating scale is used.

[3] = tested on: Alfalfa Weevil Larvae; assay: Field trial, stomach poison test; type: in vivo
Summary of the method: (§1)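 Insects, five or ten per dish, are fed air-dried leaves that were dipped in or sprayed with the compound at two or three rates. Mortality is rated 0–9 at 24, 48 and 72 h and averaged per concentration.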

[4] = tested on: Aphids - Apple; assay: Field trial, stomach poison test; type: in vivo
Summary of the method: as §1

[5] = tested on: Aphids - Tulip Tree; assay: Field trial, stomach poison test; type: in vivo
Summary of the method: as §1

[6] = tested on: Meadow Spittlebug; assay: Field trial, stomach poison test; type: in vivo
Summary of the method: as §1

[7] = tested on: Potato Flea Beetle Adults; assay: Field trial, stomach poison test; type: in vivo
Summary of the method: as §1

[8] = tested on: Tarnished Plant Bug Adults; assay: Field trial, stomach poison test; type: in vivo; parameters: key: mortality rating on a 0 to 9 scale
Summary of the method: as §1

[9] = tested on: Unidentified Green Leafhopper; assay: Field trial, stomach poison test; type: in vivo; parameters: key: mortality rating on a 0 to 9 scale
Summary of the method: as §1

[10] = tested on: Alfalfa Weevil Larvae; assay: Field trial, contact poison test; type: in vivo
Summary of the method: (§2)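 Infested host plants were kept in water-filled bottles with cellucotton around the stem and sprayed with different compound concentrations by atomizer at 10 psi from arm's length. Mortality was read at 24, 48 and 72 h on a 0–9 scale (0 = 0-10%, 9 = 91-100% mortality), averaged per concentration.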

[11] = tested on: Potato Flea Beetle Adults; assay: Field trial, contact poison test; type: in vivo
Summary of the method: as §2

[12] = tested on: Alfalfa Weevil Larvae; assay: Field trial, topical application; type: in vivo
Procedure: The results are read at 24, 48, and 72 hours when applicable. The rating scale is 0 to 9 where 0 = 0-10 percent and 9 = 91-100 percent mortality.
In a variation of the above test, 1 microliter of a test solution containing a predetermined number of micrograms of benzimidazole was applied directly to larvae or adult insects.
Using the above methods, field trials were carried out against species of 5 orders of insects. The results, which are summarized in the following tables, give the average mortality for the particular insect with a given benzimidazole for each concentration employed. […] These tables contain all results obtained during the summer trials.

[13] = tested on: Aphids - Sour Gum; assay: Field trial, stomach poison test; type: in vivo
Summary of the method: as §1

[14] = tested on: Yellow Mealworm Larvae; assay: Field trial, topical application; type: in vivo; parameters: key: 0 = 0-10% mortality, 9 = 91-100% mortality (0-9 scale)
Summary of the method: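 1 μL benzimidazole solution of set microgram content applied topically to larvae or adults. Mortality read at 24, 48 and 72 h where applicable, rated 0-9 (0 = 0-10%, 9 = 91-100%); values are average mortality per concentration.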

[15] = tested on: Boll Weevil; assay: Field trial (first summer), topical; type: in vivo, Anthonomus grandis; details: .078125 μg/μl
Summary of the method: (§3)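 Field trial from the first summer in which 1 µl of test solution holding a set number of micrograms of benzimidazole was applied topically to larvae or adult insects. Mortality at a given route and concentration was scored on a 0–9 scale.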

[16] = tested on: Picnic Beetle; assay: Field trial (first summer), topical; type: in vivo; details: .078125 μg/μl
Summary of the method: as §3

[17] = tested on: Asparagus Beetles Adults; assay: Field trial, stomach poison test; type: in vivo
Summary of the method: as §1

[18] = tested on: Asparagus Beetles Adults; assay: Field trial, contact poison test; type: in vivo
Summary of the method: as §2

[19] = tested on: Confused Flour Beetle; assay: Field trial (first summer), topical; type: in vivo; details: .15625 μg/μl
Summary of the method: as §3

CC(C)OC(=O)n1c(C(F)(F)F)nc2c([N+](=O)[O-])cc(C(F)(F)F)cc21 [I, isopropyl 2,6-bis(trifluoromethyl)-4-nitro-1-benzimidazolecarboxylate]
mortality rating ([1]; 50 ppm): 8.5
mortality rating ([1]; 250 ppm): 6.5
mortality rating ([2]; 25 ppm): 8.5
mortality rating ([2]; 50 ppm): 8.5
mortality rating ([2]; 100 ppm): 7.5
average mortality rating ([3]; 125 ppm): 8
average mortality rating ([3]; 250 ppm): 4
average mortality rating ([3]; 500 ppm): 6
average mortality rating ([4]; 25 ppm): 1
average mortality rating ([4]; 50 ppm): 5
average mortality rating ([4]; 100 ppm): 9 (91-100 percent mortality)
average mortality rating ([5]; 25 ppm): 5
average mortality rating ([5]; 50 ppm): 5
average mortality rating ([5]; 100 ppm): 5
average mortality rating ([6]; 10 ppm): 2
average mortality rating ([6]; 25 ppm): 5
average mortality rating ([6]; 50 ppm): 3
average mortality rating ([7]; 10 ppm): 6
average mortality rating ([7]; 25 ppm): 8
average mortality rating ([7]; 50 ppm): 8
average mortality rating ([7]; 100 ppm): 9 (91-100 percent mortality)
average mortality rating ([8]; 10 ppm): 3
average mortality rating ([8]; 25 ppm): 4
average mortality rating ([8]; 50 ppm): 2
average mortality rating ([9]; 10 ppm): 2
average mortality rating ([9]; 25 ppm): 6
average mortality rating ([9]; 50 ppm): 7
average mortality rating ([10]; 500 ppm): 1
average mortality rating ([10]; 750 ppm): 2
average mortality rating ([10]; 1000 ppm): 1
average mortality rating ([11]; 10 ppm): 9 (91-100 percent mortality)
average mortality rating ([11]; 25 ppm): 9 (91-100 percent mortality)
average mortality rating ([11]; 50 ppm): 9 (91-100 percent mortality)
average mortality rating ([11]; 100 ppm): 9 (91-100 percent mortality)
average mortality rating ([11]; 250 ppm): 9 (91-100 percent mortality)
average mortality rating ([12]; 0.03 μg/μl): 1
average mortality rating ([12]; 0.07 μg/μl): 1
average mortality rating ([12]; 0.1 μg/μl): 3

O=[N+]([O-])c1cc(C(F)(F)F)cc2[nH]c(C(F)(F)Cl)nc12 [L, 2-chlorodifluoromethyl-4-nitro-6-trifluoromethylbenzimidazole]
mortality rating ([1]; 25 ppm): 5.5
mortality rating ([2]; 10 ppm): .5
mortality rating ([2]; 25 ppm): 1.5
average mortality rating ([4]; 25 ppm): 1
average mortality rating ([4]; 50 ppm): 1
average mortality rating ([4]; 100 ppm): 4
average mortality rating ([13]; 25 ppm): 7
average mortality rating ([13]; 50 ppm): 7
average mortality rating ([13]; 100 ppm): 9 (91-100 percent mortality)
average mortality rating ([5]; 25 ppm): 1
average mortality rating ([5]; 50 ppm): 1
average mortality rating ([5]; 100 ppm): 5
average mortality rating ([6]; 25 ppm): 0 (0-10 percent)
average mortality rating ([6]; 50 ppm): 1
average mortality rating ([6]; 100 ppm): 5
average mortality rating ([8]; 10 ppm): 0 (0-10 percent)
average mortality rating ([8]; 25 ppm): 4
average mortality rating ([8]; 50 ppm): 5
average mortality rating ([14]; 0.03 μg/μl): 5
average mortality rating ([14]; 0.07 μg/μl): 5
average mortality rating ([14]; 0.15 μg/μl): 9 (91-100 percent mortality)

mixture of N,N-dimethyl-4-nitro-2,6-bis(trifluoromethyl)thio-1-benzimidazolecarboxamide and N,N-dimethyl-7-nitro-2,5-bis(trifluoromethyl)thio-1-benzimidazolecarboxamide [P]
mortality rating ([1]; 10 ppm): 0 (0-10)
mortality rating ([1]; 25 ppm): 1.5
mortality rating ([1]; 100 ppm): 4 (41-50)
mortality rating ([1]; 250 ppm): 7 (71-80)
mortality rating ([1]; 500 ppm): 7.5
mortality rating ([1]; 1000 ppm): 4.5
mortality rating ([2]; 10 ppm): 1.5
mortality rating ([2]; 25 ppm): 5 (51-60)
mortality rating ([2]; 50 ppm): 8 (81-90)
mortality rating ([2]; 100 ppm): 9 (91-100)
mortality rating ([2]; 250 ppm): 9 (91-100)
mortality rating ([2]; 500 ppm): 9 (91-100)
mortality rating ([2]; 1000 ppm): 9 (91-100)
insect mortality rating [15]: 9 (91-100 percent mortality)
insect mortality rating [16]: 9 (91-100 percent mortality)

mixture of methyl 2,6-bis(trifluoromethyl)-4-nitro-1-benzimidazolecarboxylate and methyl 2,5-bis(trifluoromethyl)-7-nitro-1-benzimidazolecarboxylate
mortality rating ([1]; 25 ppm): 0 (0-10)
mortality rating ([1]; 50 ppm): 2 (21-30)
mortality rating ([1]; 100 ppm): 4 (41-50)
mortality rating ([1]; 250 ppm): 9 (91-100)
mortality rating ([1]; 500 ppm): 9 (91-100)
mortality rating ([1]; 1000 ppm): 9 (91-100)
mortality rating ([2]; 5 ppm): 0 (0-10)
mortality rating ([2]; 10 ppm): 5.5
mortality rating ([2]; 25 ppm): 8.5
mortality rating ([2]; 50 ppm): 9 (91-100)
mortality rating ([2]; 100 ppm): 9 (91-100)
mortality rating ([2]; 250 ppm): 9 (91-100)
mortality rating ([2]; 500 ppm): 9 (91-100)
mortality rating ([2]; 1000 ppm): 9 (91-100)
average mortality rating ([3]; 125 ppm): 7
average mortality rating ([3]; 250 ppm): 6
average mortality rating ([3]; 500 ppm): 3
average mortality rating ([17]; 5 ppm): 5
average mortality rating ([17]; 10 ppm): 5
average mortality rating ([17]; 25 ppm): 9 (91-100 percent mortality)
average mortality rating ([6]; 100 ppm): 5
average mortality rating ([8]; 25 ppm): 3
average mortality rating ([8]; 50 ppm): 7 and 4
average mortality rating ([9]; 10 ppm): 5
average mortality rating ([9]; 25 ppm): 4
average mortality rating ([9]; 50 ppm): 6
average mortality rating ([10]; 500 ppm): 2
average mortality rating ([10]; 750 ppm): 6
average mortality rating ([10]; 1000 ppm): 7
average mortality rating ([18]; 10 ppm): 3
average mortality rating ([18]; 25 ppm): 8
average mortality rating ([18]; 50 ppm): 9 (91-100 percent mortality)
average mortality rating ([12]; 0.03 μg/μl): 2
average mortality rating ([12]; 0.07 μg/μl): 1
average mortality rating ([12]; 0.1 μg/μl): 4
average mortality rating ([14]; 0.03 μg/μl): 2
average mortality rating ([14]; 0.07 μg/μl): 3
average mortality rating ([14]; 0.15 μg/μl): 6
insect mortality rating [15]: 9 (91-100 percent mortality)
insect mortality rating [16]: 9 (91-100 percent mortality)

mixture of phenyl 2,6-bis(trifluoromethyl)-4-nitro-1-benzimidazolecarboxylate and phenyl 2,5-bis(trifluoromethyl)-1-benzimidazolecarboxylate
mortality rating ([1]; 25 ppm): 0 (0-10)
mortality rating ([1]; 50 ppm): 4 (41-50)
mortality rating ([1]; 100 ppm): 8 (81-90)
mortality rating ([1]; 250 ppm): 7 (71-80)
mortality rating ([1]; 500 ppm): 8 (81-90)
mortality rating ([1]; 1000 ppm): 6 (61-70)
mortality rating ([2]; 10 ppm): 1 (11-20)
mortality rating ([2]; 25 ppm): 5.5
mortality rating ([2]; 50 ppm): 8 (81-90)
mortality rating ([2]; 100 ppm): 9 (91-100)
mortality rating ([2]; 250 ppm): 9 (91-100)
mortality rating ([2]; 500 ppm): 9 (91-100)
mortality rating ([2]; 1000 ppm): 9 (91-100)
average mortality rating ([9]; 10 ppm): 0 (0-10 percent)
average mortality rating ([9]; 25 ppm): 1
average mortality rating ([9]; 50 ppm): 9 (91-100 percent mortality)
average mortality rating ([14]; 0.03 μg/μl): 3
average mortality rating ([14]; 0.07 μg/μl): 3
average mortality rating ([14]; 0.15 μg/μl): 6
insect mortality rating [15]: 9 (91-100 percent mortality)
insect mortality rating [19]: 9 (91-100 percent mortality)
